Experimental data reported in patent US20210380666A1, “SYNTHETIC HEME-CONTAINING MOLECULES AND THEIR USE” (priority 2017, published 2021).
Ends that are not written are not given here.

Experiments:
[1] = CO binding of dithionite-reduced heme molecule by absorbance spectra; conditions: anaerobic, reduced with stoichiometric dithionite, CO saturated phosphate buffered saline added
From the text: A heme molecule bound to two peptide chains Ac-GCHGGR (SEQ ID NO: 2) in a “sandwich” (see FIG. 1), when prepared in anaerobic conditions, changes absorbance spectra (measured by Cary Spec device) with the introduction of stoichiometric amounts of dithionite.

[2] = tested on: 100% CO bound hemoglobin (HbCO); assay: CO scavenging from CO-bound hemoglobin, UV-visible spectra kinetics; format: biochemical; conditions: 100% HbCO mixed with reduced heme-peptide; spectral changes during reaction

Ac-GCHGGR: heme molecule bound to two peptide chains Ac-GCHGGR in a sandwich configuration (also: heme molecule bound to two peptide chains in a sandwich configuration)
CO binding ability (change of absorbance spectra) [1]: indicating its CO binding ability

QHGCGGCHG (N-acetyl; heme bound via two thioether bonds)
kobs for CO scavenging, k1 [2]: 0.1828 s⁻¹ | kobs for CO scavenging, k2 [2]: 0.00968 s⁻¹

RCHGGR: heme group bound to two non-contiguous peptides each of sequence RCHGGR (not fully specified (N-terminus); also: heme group bound to two non-contiguous peptide copies)
kobs for CO scavenging, k1 [2]: 0.02576 s⁻¹ | kobs for CO scavenging, k2 [2]: 0.01241 s⁻¹

microperoxidase-11 [MP11, reference compound]
kobs for CO scavenging, k1 [2]: 0.0215 s⁻¹
